Tested on: Escherichia coli ATCC-25922, Klebsiella pneumonia ATCC-4352, Canadida albicans ATCC-10231, Pseudomonas aeruginosa ATCC-9027, Staphylococcus aureus ATCC-6538
Experiment: Lawn-spray assay of AM635 disinfectant spray in SDS (Example 5)
Format: cell-based
Conditions: portions of the untreated area were also clear of bacterial growth
Protocol: The efficacy of 0.5-2% SDS solutions (in DiH2O)+0.1-10% Silver 1-Methyl imidazole were tested by performing a lawn-spray assay. The Silver 1-Methylimidazole Complex 635 (AM635) disinfectant sprays in SDS were prepared as described in Example 4. Briefly, a lawn of bacteria/yeast from a newly grown broth culture were inoculated onto their preferred agar media by dipping a swab into each broth, fully wetting the swab end, then swiping the swab back-and-forth from the top to the bottom of the plate, then turning the plate for a ¼ turn and re-streaking from top to bottom again. This technique ensures for total coverage of the inoculating bacteria/yeast across the face of the agar media. The dish was then opened and a paper towel placed over the top of the plate to cover only half of the surface while not touching the agar surface, so that the other half is exposed to the air. This exposed half was then treated with 2-pumps from a spray bottle containing the AM635 in SDS composition, ensuring that the exposed half of the plate was saturated by the test product. Each plate was treated using the same 2-pump criteria. All plates were then incubated “agar-down” overnight at 37° C. to allow the bacteria to fully grow (at 30° C. for yeast). […]

## CCCCCCCCCCCCOS(=O)(=O)[O-].[Na+] [SDS, Sodium Dodecyl Sulfate]
  effect on untreated area of lawn plate: hypermigration effect
